Values after ≈ are worked out from the molar mass of the structure shown. Where two headings read alike, the source gives them in different places.
Experiments:
[1] = tested on: C. elegans strain glp-4;sek 1; assay: Toxicity of peptides in uninfected C. elegans; type: in vivo, Caenorhabditis elegans; settings: worms grown four days with peptide; D-RR4 and colistin at 8 × MIC
Procedure: To test the efficacy of the synthetic peptides to protect against infections in vivo, we utilized a C. elegans model of bacterial infection. This model has been used extensively for early-stage evaluation of promising antimicrobials, [35], [36]. Initially, the lethal dose of D-RR4 against uninfected nematodes was determined.
(A) Evaluation of toxicity of peptides in Caenorhabditis elegans. C. elegans strain glp-4;sek 1 was grown for four days in the presence of peptides at different concentrations. Worms were monitored daily and the live worms were counted. Results are expressed as a Kaplan-Meier survival curve. (B) Evaluation of antimicrobial activity of peptides to reduce the bacterial CFU inside infected Caenorhabditis elegans. C. elegans strain glp-4; sek 1 were infected with P. aeruginosa PAO1, colistin-resistant P. aeruginosa 1109, or A. baumannii ATCC BAA-1605. […] After treatment, worms were lysed and bacteria were counted. One asterisk (*) indicates significant difference with the negative control. Two asterisks (**) indicates significant difference with the monotherapy treatment (P < 0.05). Results are expressed as means from three biological replicates ± standard deviation. (C) Efficacy of peptides in a Caenorhabditis elegans model of bacterial infection. […] Worms were monitored daily and the live worms were counted. Results are expressed as a Kaplan-Meier survival curve. C. elegans receiving no treatment served as a negative control.

[2] = tested on: P. aeruginosa and A. baumannii isolates
Excerpt: (§1) The broth microdilution technique was utilized to assess the MIC of designed peptides according to the guidelines of the Clinical and Laboratory Standards Institute (CLSI)[37].

[3] = tested on: colistin-resistant P. aeruginosa isolated from cystic fibrosis patients
Excerpt: as §1

[4] = tested on: human keratinocytes (HaCaT cells); assay: Cytotoxicity, MTS assay; settings: for EC50: 24 h
Procedure: (§2) A significant limitation for translating AMPs into clinical applications is their toxicity to host (mammalian) cells. Herein, we evaluated the cytotoxic effects of our peptide constructs against murine macrophages (J774.1A) and human keratinocytes (HaCaT cells), via the MTS assay.
(§3) The peptides were assayed for potential in vitro toxicity against human keratinocytes (HaCaT) and murine macrophage cells (J774A.1), as described before, with the following modifications. Cells were treated with peptides at different concentrations for 24 hours. The therapeutic index of the peptides was calculated as the ratio of mammalian EC50 (the concentration of peptide that inhibited growth of 50% of the mammalian cells) to the MIC50 of peptides against bacteria.

[5] = tested on: murine macrophages (J774.1A); assay: Cytotoxicity, MTS assay; settings: for EC50: 24 h
Procedure: as §2, §3

[6] = tested on: intracellular A. baumannii ATCC 19606; type: cell-based; settings: ATCC 19606, 24 h, 8
Procedure: (§4) Figure 2 Intracellular antibacterial activity of peptides in infected murine macrophage cells (J774A.1). […] Statistical analysis was calculated using one-way ANOVA, with post hoc Tukey’s multiple comparisons test. P < 0.05 was considered significant. One asterisk (*) indicates significance from the negative control. Results are expressed as means from three biological replicates ± standard deviation.
(§5) In order to assess the peptides’ ability to kill intracellular bacteria, murine macrophages (J774A.1) were infected, as described in previous studies[31]–[33], [42], [48]–[51]. Briefly, J774A.1 cells were seeded and incubated as described above for the toxicity assessment. Following incubation, cells were infected with either P. aeruginosa PAO1 or A. baumannii ATCC 19606 (multiplicity of infection 100:1) in DMEM + 10% FBS for two hours. After infection, the wells were washed with 200 µL of media containing gentamicin (50 µg/ml) and further incubated for 30 minutes with gentamicin to kill extracellular bacteria. […] Medium alone was used as a negative control. After incubation, the media was aspirated and washed twice with PBS to remove any residual test agent. Next, 100 µL of PBS containing 0.01% triton X-100 was added to lyse the J774 cells. Subsequently, bacteria were diluted and plated on TSA plates. Plates were incubated at 37 °C for 16 hours. After incubation, bacteria were enumerated and analyzed. The experiment was repeated twice. The average percent reduction of bacterial growth for each treatment regimen has been reported.

[7] = tested on: intracellular P. aeruginosa PAO1; type: cell-based; settings: PAO1, 24 h, 8
Procedure: as §4, §5

[8] = tested on: human red blood cells; assay: Hemolysis assay; type: cell-based; settings: for HC50: red cells of human
Procedure: Next, we assessed the hemolytic activity of the peptides on human red blood cells (RBCs).
Peptides were assayed for hemolytic activity against human red blood cells, as described previously.

[9] = tested on: A. baumannii; type: cell-based
[10] = tested on: P. aeruginosa PAO1; assay: Inner (cytoplasmic) membrane permeabilization assay (propidium iodide); type: cell-based; settings: D-RR4 5 × and 10 × MIC, LL-37 10 × MIC
Procedure: Damage of the bacterial inner (cytoplasmic) membrane by peptides was monitored by measuring the fluorescence intensity of P. aeruginosa PAO1 combined with propidium iodide and then subsequently treated with D-RR4.
Damage of the bacterial inner (cytoplasmic) membrane after exposure to peptides was evaluated using propidium iodide, as described elsewhere[47].
Data are presented as means ± standard error of the means
indicated by propidium iodide fluorescence.
Each experiment was performed in duplicate, and the
values represent means ± standard deviation.

[11] = tested on: P. aeruginosa PAO1; assay: MIC after treatment with proteases; type: cell-based; settings: 50 mM Tris-HCl pH 7.4, 37 °C, four hours
Procedure: To examine the ability of peptides to resist proteolytic digestion by mammalian and bacterial proteases, RR4 and D-RR4 were incubated with trypsin or proteinase K at a molar ratio of 500: 1 (peptide: enzyme), respectively, in digestion buffer (50 mM Tris–HCl, pH 7.4) at 37 °C for four hours, as described previously.

[12] = tested on: P. aeruginosa PAO1 biofilm; assay: Disruption of established biofilms, microtiter dish crystal violet assay; type: cell-based; settings: for biofilm mass disrupted: mature (24 hour) biofilm, 24 hours at 37 °C, crystal violet OD 595 nm
Procedure: (§6) Figure 1 Efficacy of peptides on established biofilms of P. aeruginosa PAO1 and A. baumannii ATCC BAA-1605. […] After incubation, wells were washed and biofilms were stained with 0.5% (w/v) crystal violet for 30 minutes. The dye was solubilized with ethanol (95%) and the optical density (595 nm) of the biofilm mass was measured. Experiments were repeated twice independently and the average values are reported.
(§7) To examine the peptides’ ability to disrupt bacterial biofilms, the microtiter dish biofilm formation assay was employed[41]–[43].

[13] = tested on: A. baumannii ATCC BAA-1605 biofilm; assay: as above; type: cell-based; settings: mature (24 hour) biofilm
Procedure: as §6, §7

[14] = colistin-resistant isolated from cystic fibrosis patients
[15] = colistin-resistant isolates of Table 3

## CC[C@@H](C)[C@@H](NC(=O)[C@@H](CCCNC(=N)N)NC(=O)[C@@H](CCCNC(=N)N)NC(=O)[C@@H](CC(C)C)NC(=O)[C@@H](Cc1c[nH]c2ccccc12)NC(=O)[C@@H](C)NC(=O)[C@@H](CCCCN)NC(=O)[C@H](NC(=O)[C@@H](CCCNC(=N)N)NC(=O)[C@@H](CCCNC(=N)N)NC(=O)[C@@H](CC(C)C)NC(=O)[C@H](N)Cc1c[nH]c2ccccc12)[C@H](C)CC)C(=O)N[C@H](CCCCN)C(=O)N[C@H](C)C(N)=O [D-RR4]
[1]
  toxicity to uninfected worms: not toxic
[2]
  MIC50: 2 µM (≈ 3.73 µg/mL)
  MIC90: 4 µM (≈ 7.46 µg/mL)
  MIC against all tested bacterial strains: 2 to 8 µM
[3]; [14]
  MIC50: 4 µM (≈ 7.46 µg/mL)
  MIC90: 16 µM (≈ 29.8 µg/mL)
[4]
  EC50: 64 µM
[4]; EC50 (HaCaT) over MIC50, 512 µM used where no cytotoxicity at […]
  Therapeutic index (TI): 32
[5]
  EC50: 64 µM
[5]; EC50 (J774.1) over MIC50, 512 µM used where no cytotoxicity at […]
  Therapeutic index (TI): 32
[6]
  intracellular bacteria killed: 100.00% ± 0.00
[7]
  intracellular bacteria killed: 96.00% ± 1.15
[8]; HC50 over MIC50
  Therapeutic index (TI) RBCs: 128
[8]
  HC50: 256 µM

## CC[C@H](C)[C@H](NC(=O)[C@H](CCCCN)NC(=O)[C@H](CCC(=O)O)NC(=O)[C@H](CCCCN)NC(=O)[C@H](CO)NC(=O)[C@H](CCCCN)NC(=O)[C@H](CCCNC(=N)N)NC(=O)[C@H](Cc1ccccc1)NC(=O)[C@H](Cc1ccccc1)NC(=O)[C@H](CC(=O)O)NC(=O)CNC(=O)[C@H](CC(C)C)NC(=O)[C@@H](N)CC(C)C)C(=O)NCC(=O)N[C@@H](CCCCN)C(=O)N[C@@H](CCC(=O)O)C(=O)N[C@@H](Cc1ccccc1)C(=O)N[C@@H](CCCCN)C(=O)N[C@@H](CCCNC(=N)N)C(=O)N[C@H](C(=O)N[C@H](C(=O)N[C@@H](CCC(N)=O)C(=O)N[C@@H](CCCNC(=N)N)C(=O)N[C@H](C(=O)N[C@@H](CCCCN)C(=O)N[C@@H](CC(=O)O)C(=O)N[C@@H](Cc1ccccc1)C(=O)N[C@@H](CC(C)C)C(=O)N[C@@H](CCCNC(=N)N)C(=O)N[C@@H](CC(N)=O)C(=O)N[C@@H](CC(C)C)C(=O)N[C@H](C(=O)N1CCC[C@H]1C(=O)N[C@@H](CCCNC(=N)N)C(=O)N[C@H](C(=O)N[C@@H](CCC(=O)O)C(=O)N[C@@H](CO)C(=O)O)[C@@H](C)O)C(C)C)[C@@H](C)CC)C(C)C)[C@@H](C)CC [LL-37, reference compound]
[9]; strain ATCC 19606
  MIC: 2 µM (≈ 8.99 µg/mL)
[9]; strain ATCC BAA-747
  MIC: 8 µM (≈ 35.9 µg/mL)
[9]; strain ATCC BAA-1605
  MIC: 4 µM (≈ 18 µg/mL)
[9]; strain NR-9667
  MIC: 4 µM (≈ 18 µg/mL)
[9]; strain NR-13374
  MIC: 4 µM (≈ 18 µg/mL)
[9]; strain NR-13375
  MIC: 4 µM (≈ 18 µg/mL)
[9]; strain NR-13382
  MIC: 4 µM (≈ 18 µg/mL)
[9]; strain NR-17777
  MIC: 4 µM (≈ 18 µg/mL)
[9]; strain NR-17778
  MIC: 4 µM (≈ 18 µg/mL)
[9]; strain NR-17780
  MIC: 4 µM (≈ 18 µg/mL)
[9]; strain NR-17783
  MIC: 4 µM (≈ 18 µg/mL)
[9]; strain NR-17784
  MIC: 4 µM (≈ 18 µg/mL)
[9]; strain NR-17785
  MIC: 4 µM (≈ 18 µg/mL)
[9]; strain NR-17786
  MIC: 4 µM (≈ 18 µg/mL)
[9]; strain NR-19298
  MIC: 2 µM (≈ 8.99 µg/mL)
[9]; strain NR-19299
  MIC: 8 µM (≈ 35.9 µg/mL)
[2]; MIC that inhibited growth of 50% of all isolates (Table 2)
  MIC50: 4 µM (≈ 18 µg/mL)
[2]; MIC that inhibited growth of 90% of all isolates (Table 2)
  MIC90: 32 µM (≈ 144 µg/mL)
[3]; [15]
  MIC50: 64 µM (≈ 288 µg/mL)
  MIC90: >128 µM
[3]; strain 1015
  MIC: >128 µM
[3]; strain 1016
  MIC: >128 µM
[3]; strain 1017
  MIC: >128 µM
[3]; strain 1020
  MIC: 32 µM (≈ 144 µg/mL)
[3]; strain 1109
  MIC: 64 µM (≈ 288 µg/mL)
[3]; strain 1125
  MIC: 128 µM (≈ 575 µg/mL)
[3]; strain 1131
  MIC: 16 µM (≈ 71.9 µg/mL)
[3]; strain 1133
  MIC: 32 µM (≈ 144 µg/mL)
[3]; strain 1571
  MIC: 16 µM (≈ 71.9 µg/mL)
[3]; strain 1603
  MIC: 32 µM (≈ 144 µg/mL)
[3]; strain 16011
  MIC: >128 µM
[10]
  propidium iodide fluorescence (inner membrane damage): rapid and significant increase in fluorescence

## CC[C@H](C)[C@H](NC(=O)[C@H](CCCNC(=N)N)NC(=O)[C@H](CCCNC(=N)N)NC(=O)[C@H](CC(C)C)NC(=O)[C@H](Cc1c[nH]c2ccccc12)NC(=O)[C@H](C)NC(=O)[C@H](CCCCN)NC(=O)[C@@H](NC(=O)[C@H](CCCNC(=N)N)NC(=O)[C@H](CCCNC(=N)N)NC(=O)[C@H](CC(C)C)NC(=O)[C@@H](N)Cc1c[nH]c2ccccc12)[C@@H](C)CC)C(=O)N[C@@H](CCCCN)C(=O)N[C@@H](C)C(=O)O [RR4]
[11]; after Proteinase K 1:500 (peptide:enzyme 500:1)
  MIC: > 64 µM
[11]; after Trypsin 1:500 (peptide:enzyme 500:1)
  MIC: > 64 µM
[2]
  MIC50: 4 µM (≈ 7.47 µg/mL)
  MIC90: 8 µM (≈ 14.9 µg/mL)
[2]; MIC50 and MIC90
  improvement in the MIC over RR: 16 fold
[3]; [14]
  MIC50: 8 µM (≈ 14.9 µg/mL)
  MIC90: 32 µM (≈ 59.7 µg/mL)
[12]; 0.5× to 1 × MIC, respectively
  biofilm mass reduced: 20–35%
[12]; 4 × MIC
  biofilm mass disrupted: more than 31%
[12]; 8 × MIC
  biofilm mass disrupted: > 39%
[12]; 16 × MIC
  biofilm mass disrupted: > 41%
[12]; 32 × MIC
  biofilm mass disrupted: > 61%
[13]
  biofilm-disrupting activity: concentration-dependent activity
[4]
  EC50: 128 µM
[5]
  EC50: 64 µM
[6]
  intracellular bacteria killed: 25.00% ± 8.90
[7]
  intracellular bacteria killed: 14.60% ± 5.50
[8]
  Therapeutic index (TI) RBCs: 64
  HC50: 256 µM

Reference: article PMC5537347, “A short D-enantiomeric antimicrobial peptide with potent immunomodulatory and antibiofilm activity against multidrug-resistant Pseudomonas aeruginosa and Acinetobacter baumannii” (Scientific Reports, 2017)
